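48-hour exposure; five concentrations; linearly interpolated endpoints. TGI is the concentration that stops growth completely.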
Key:
Test in all cases: NCI tumour cell line growth inhibition, 48 h
[1] = test system: HOP-62 NSCLC
[2] = test system: OVCAR-4 ovarian
[3] = test system: MDA-MB-231 breast
[4] = test system: IGROV1 ovarian
[5] = test system: MOLT-4 leukemia
[6] = test system: PC-3 prostate
[7] = test system: SN12C renal
[8] = test system: HOP-92 NSCLC
[9] = test system: MALME-3M melanoma
[10] = test system: KM12 colon
[11] = test system: SF-295 CNS

CCOC(=O)c1c(OCC)[nH]c(=O)c(C(c2ccc(F)cc2)c2c(O)c(C(=O)OCC)c(OCC)[nH]c2=O)c1O
TGI [1]: 36.1 µM | TGI [2]: 48.3 µM | TGI [3]: 29.8 µM | TGI [4]: 30.3 µM | TGI [5]: 71 µM | TGI [6]: 34.6 µM | TGI [7]: 30.2 µM | TGI [8]: 18.1 µM | TGI [9]: 29.5 µM | TGI [10]: 37.7 µM | TGI [11]: 49.8 µM

N#Cc1ccc(Nc2nc3nc[nH]c3c(=O)[nH]2)cc1
TGI [1]: > 100 µM | TGI [2]: > 100 µM | TGI [3]: > 100 µM | TGI [4]: > 100 µM | TGI [5]: > 100 µM | TGI [6]: > 100 µM | TGI [7]: > 100 µM | TGI [8]: > 100 µM | TGI [9]: > 100 µM | TGI [10]: > 100 µM | TGI [11]: > 100 µM

Cc1ccc(Nc2ncnc3sc(SCc4ccccc4)nc23)cc1
TGI [1]: > 100 µM | TGI [2]: > 100 µM | TGI [3]: > 100 µM | TGI [4]: > 100 µM | TGI [5]: > 100 µM | TGI [6]: > 100 µM | TGI [7]: > 100 µM | TGI [8]: > 100 µM | TGI [9]: > 100 µM | TGI [10]: > 100 µM | TGI [11]: > 100 µM

O=C(O)CCCN1CCCCC1
TGI [1]: > 100 µM | TGI [2]: > 100 µM | TGI [3]: > 100 µM | TGI [4]: > 100 µM | TGI [5]: > 100 µM | TGI [6]: > 100 µM | TGI [7]: > 100 µM | TGI [8]: > 100 µM | TGI [9]: > 100 µM | TGI [10]: > 100 µM | TGI [11]: > 100 µM

COC(=O)CCCc1ccc2c(c1)CCC2
TGI [1]: > 100 µM | TGI [2]: > 100 µM | TGI [3]: > 100 µM | TGI [4]: > 100 µM | TGI [5]: > 100 µM | TGI [6]: > 100 µM | TGI [7]: > 100 µM | TGI [8]: > 100 µM | TGI [9]: > 100 µM | TGI [10]: > 100 µM | TGI [11]: > 100 µM

COC(=O)CSc1[nH]c2nc(C)nc(Nc3ccccc3)c2c1C#N
TGI [1]: > 10 µM | TGI [2]: > 10 µM | TGI [3]: > 10 µM | TGI [4]: > 10 µM | TGI [5]: > 10 µM | TGI [6]: > 10 µM | TGI [7]: > 10 µM | TGI [8]: > 10 µM | TGI [9]: > 10 µM | TGI [10]: > 10 µM | TGI [11]: > 10 µM

O=C(/C=C1\N=C(c2ccccc2)N(c2ccc3c(c2)Sc2cc(N4C(=O)/C(=C/C(=O)/C=C/c5ccccc5)N=C4c4ccccc4)ccc2N3)C1=O)/C=C/c1ccccc1
TGI [1]: > 100 µM | TGI [2]: 41.8 µM | TGI [3]: 90 µM | TGI [4]: > 100 µM | TGI [5]: > 100 µM | TGI [6]: 37.6 µM | TGI [7]: > 100 µM | TGI [8]: > 100 µM | TGI [9]: 55.8 µM | TGI [10]: > 100 µM | TGI [11]: 57 µM

COc1cc(/C=C\c2ccc(SC)cc2)cc(OC)c1OC
TGI [1]: > 76.3 µM | TGI [2]: > 100 µM | TGI [3]: > 100 µM | TGI [4]: > 17.1 µM | TGI [5]: 28.9 µM | TGI [6]: > 100 µM | TGI [7]: > 100 µM | TGI [8]: > 46.1 µM | TGI [9]: > 100 µM | TGI [10]: 2.8 µM | TGI [11]: < 0.0204 µM

CCOC(=O)Nc1ccc(S(=O)(=O)Nc2ccc(Br)cc2)cc1
TGI [1]: 86.7 µM | TGI [2]: 57.1 µM | TGI [3]: 93.5 µM | TGI [4]: > 100 µM | TGI [5]: > 100 µM | TGI [6]: > 100 µM | TGI [7]: > 100 µM | TGI [8]: > 100 µM | TGI [9]: > 100 µM | TGI [10]: > 100 µM | TGI [11]: 97.8 µM

C=C(C)C1CC2=C(C(=O)OC)C=C(O2)C(C(=C)C)[C@@H]2OC(=O)/C(=C\C1O)[C@H]2N(C)C (some centres undefined)
TGI [1]: 34.2 µM | TGI [2]: 21 µM | TGI [3]: 43.8 µM | TGI [4]: 20.9 µM | TGI [5]: > 22.7 µM | TGI [6]: 24.5 µM | TGI [7]: 28.5 µM | TGI [8]: 20.2 µM | TGI [9]: 34.5 µM | TGI [10]: 28 µM | TGI [11]: 32 µM

C(=N\NC1=NCCCN1)/c1ccc(-c2cn3cc(/C=N/NC4=NCCCN4)ccc3n2)cc1
TGI [1]: > 100 µM | TGI [2]: > 100 µM | TGI [3]: > 100 µM | TGI [4]: > 100 µM | TGI [5]: 11.8 µM | TGI [6]: > 57.3 µM | TGI [7]: > 100 µM | TGI [8]: > 100 µM | TGI [9]: 87.4 µM | TGI [10]: > 100 µM | TGI [11]: > 100 µM

CC(=O)C1=CC=C/C1=N\Nc1ccccc1
TGI [1]: 50.9 µM | TGI [2]: 20.1 µM | TGI [3]: 24.2 µM | TGI [4]: 21.3 µM | TGI [5]: 29.6 µM | TGI [6]: 18.7 µM | TGI [7]: 22.7 µM | TGI [8]: 27.3 µM | TGI [9]: 28.4 µM | TGI [10]: 15.5 µM | TGI [11]: 28.2 µM

COc1ccc(N=NN2CCCC2)cc1
TGI [1]: > 100 µM | TGI [2]: 43.6 µM | TGI [3]: 47.7 µM | TGI [4]: 41 µM | TGI [5]: 60.6 µM | TGI [6]: > 100 µM | TGI [7]: 55 µM | TGI [8]: 42.4 µM | TGI [9]: 39.3 µM | TGI [10]: 14.7 µM | TGI [11]: > 100 µM

NC(=O)c1cc2ccccc2c(N=Nc2ccccc2)c1O
TGI [1]: > 100 µM | TGI [2]: > 100 µM | TGI [3]: > 100 µM | TGI [4]: > 100 µM | TGI [5]: > 100 µM | TGI [6]: > 100 µM | TGI [7]: > 100 µM | TGI [8]: > 100 µM | TGI [9]: > 100 µM | TGI [10]: > 100 µM | TGI [11]: > 100 µM

Cc1nc2c(=O)[nH]c(=O)nc-2n(CCO)c1C
TGI [1]: > 100 µM | TGI [2]: > 100 µM | TGI [3]: > 100 µM | TGI [4]: > 100 µM | TGI [5]: > 100 µM | TGI [6]: > 100 µM | TGI [7]: > 100 µM | TGI [8]: > 100 µM | TGI [9]: > 100 µM | TGI [10]: > 100 µM | TGI [11]: > 100 µM

CC(C)C[C@H](NC(=O)[C@@H](Cc1cccc2ccccc12)NC(=O)N1CCOCC1)B(O)O
TGI [1]: 33.3 µM | TGI [2]: > 57.8 µM | TGI [3]: 20.3 µM | TGI [4]: 23.5 µM | TGI [5]: > 100 µM | TGI [6]: 24.9 µM | TGI [7]: 20.4 µM | TGI [8]: 8.55 µM | TGI [9]: 2.72 µM | TGI [10]: 20 µM | TGI [11]: 43.8 µM

COc1ccccc1NC(=S)N/N=C(/c1ccccc1)c1ccccn1
TGI [1]: 12.6 µM | TGI [2]: 19.3 µM | TGI [3]: 11.4 µM | TGI [4]: 17.6 µM | TGI [5]: 0.403 µM | TGI [6]: 16.7 µM | TGI [7]: 16.7 µM | TGI [8]: 15.6 µM | TGI [9]: 17.3 µM | TGI [10]: 14 µM | TGI [11]: 7.17 µM

C[N+](C)(C)CCCCCc1c2nc(c(CCCCC[N+](C)(C)C)c3ccc([nH]3)c(CCCCC[N+](C)(C)C)c3ccc([nH]3)c(CCCCC[N+](C)(C)C)c3nc1C=C3)C=C2
TGI [1]: > 100 µM | TGI [2]: > 100 µM | TGI [3]: > 100 µM | TGI [4]: > 100 µM | TGI [5]: > 100 µM | TGI [6]: > 100 µM | TGI [7]: > 100 µM | TGI [8]: > 100 µM | TGI [9]: > 100 µM | TGI [10]: > 100 µM | TGI [11]: > 100 µM

COc1ccc(OC)c2c1C[C@@H]1C(C#N)N3[C@H](Cc4c(OC)ccc(OC)c4[C@@H]3C)C(=O)N1[C@H]2C (some centres undefined)
TGI [1]: > 57.5 µM | TGI [2]: 16.4 µM | TGI [3]: 7.56 µM | TGI [4]: 16.8 µM | TGI [5]: 15.9 µM | TGI [6]: 11.7 µM | TGI [7]: > 50.2 µM | TGI [8]: 5.37 µM | TGI [9]: 8.61 µM | TGI [10]: 8.21 µM | TGI [11]: 35.7 µM
